Measurements taken from ChEMBL document CHEMBL6092211, “Discovery and evaluation of novel SHIP-1 inhibitors” (Bioorg Med Chem, 2024).
pEC50, pIC50, pKi: −log10 of the molar value.

Experiments:
[1] = target: T1, Phosphatidylinositol 3,4,5-trisphosphate 5-phosphatase 1 (Homo sapiens, UniProt Q92835); experiment: Inhibition of human SHIP-1 (397 to 715 residues) catalytic domain expressed in Rosetta DE3 BL21 cells using 1-(1,2-dioctanoylphosphatidyl) inositol-3,4,5-trisphosphate as substrate by malachite green based spectramax microplate reader analysis
T1 sequence (Q92835 whole entry): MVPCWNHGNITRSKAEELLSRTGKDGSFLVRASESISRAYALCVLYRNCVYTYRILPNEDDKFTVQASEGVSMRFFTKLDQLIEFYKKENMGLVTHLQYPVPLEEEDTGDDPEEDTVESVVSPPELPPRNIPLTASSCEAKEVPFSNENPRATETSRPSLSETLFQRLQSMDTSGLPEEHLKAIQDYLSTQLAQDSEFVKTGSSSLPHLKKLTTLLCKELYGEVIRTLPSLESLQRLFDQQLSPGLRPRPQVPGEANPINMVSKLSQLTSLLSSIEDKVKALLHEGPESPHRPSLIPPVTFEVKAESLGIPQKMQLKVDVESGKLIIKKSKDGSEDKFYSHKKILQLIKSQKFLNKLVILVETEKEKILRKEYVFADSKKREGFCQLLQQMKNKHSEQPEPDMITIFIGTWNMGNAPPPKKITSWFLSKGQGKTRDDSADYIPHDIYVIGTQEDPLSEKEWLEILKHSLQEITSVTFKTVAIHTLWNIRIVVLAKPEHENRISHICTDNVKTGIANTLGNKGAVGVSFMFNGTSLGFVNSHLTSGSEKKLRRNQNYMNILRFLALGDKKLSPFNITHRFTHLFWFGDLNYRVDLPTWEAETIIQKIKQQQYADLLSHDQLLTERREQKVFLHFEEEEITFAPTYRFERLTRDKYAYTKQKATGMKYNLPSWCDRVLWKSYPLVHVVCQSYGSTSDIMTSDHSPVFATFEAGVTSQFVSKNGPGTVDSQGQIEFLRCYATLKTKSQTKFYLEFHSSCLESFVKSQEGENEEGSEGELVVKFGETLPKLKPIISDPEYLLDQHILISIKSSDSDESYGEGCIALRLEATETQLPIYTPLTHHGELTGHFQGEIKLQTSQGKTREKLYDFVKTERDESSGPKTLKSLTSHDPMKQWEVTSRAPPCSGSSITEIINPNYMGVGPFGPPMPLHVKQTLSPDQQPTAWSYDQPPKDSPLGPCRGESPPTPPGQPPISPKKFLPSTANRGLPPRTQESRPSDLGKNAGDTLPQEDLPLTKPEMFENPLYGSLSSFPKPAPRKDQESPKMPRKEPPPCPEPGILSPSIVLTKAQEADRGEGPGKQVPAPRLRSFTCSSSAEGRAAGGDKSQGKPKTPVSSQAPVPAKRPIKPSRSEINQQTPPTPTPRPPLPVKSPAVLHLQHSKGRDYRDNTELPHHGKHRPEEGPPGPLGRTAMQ

[2] = target: T1, Phosphatidylinositol 3,4,5-trisphosphate 5-phosphatase 1; experiment: Inhibition of SHIP-1 (unknown origin) using PtdIns(3,4,5)P3 as substrate by malachite green solution based […] analysis
[3] = target: T1, Phosphatidylinositol 3,4,5-trisphosphate 5-phosphatase 1; experiment: Inhibition of recombinant SHIP-1 (unknown origin) using PtdIns(3,4,5)P3 as substrate incubated for 30 mins by malachite green solution based analysis
[4] = target: T1, Phosphatidylinositol 3,4,5-trisphosphate 5-phosphatase 1; experiment: Competitive inhibition of human SHIP-1 (397 to 715 residues) catalytic domain expressed in Rosetta DE3 BL21 cells assessed as inhibition constant by Lineweaver-Burk plot analysis; type: cell-based
[5] = Cytotoxicity against human HMC3 cells assessed as cell count incubated for 48 hrs by Hoechst-33342 staining based analysis; type: toxicity
HMC3 [6] = experiment: cells; details: Homo sapiens, HMC3, 48 h
HMC3 [7] = experiment: cells; details: Homo sapiens, HMC3, 48 h; remark: listed apart in the source
[8] = target: T2, Phosphatidylinositol 3,4,5-trisphosphate 5-phosphatase 2 (Homo sapiens, UniProt O15357); experiment: Inhibition of recombinant SHIP-2 (unknown origin) using PtdIns(3,4,5)P3 as substrate incubated for 30 mins by malachite green solution based analysis
T2 sequence (O15357 whole entry): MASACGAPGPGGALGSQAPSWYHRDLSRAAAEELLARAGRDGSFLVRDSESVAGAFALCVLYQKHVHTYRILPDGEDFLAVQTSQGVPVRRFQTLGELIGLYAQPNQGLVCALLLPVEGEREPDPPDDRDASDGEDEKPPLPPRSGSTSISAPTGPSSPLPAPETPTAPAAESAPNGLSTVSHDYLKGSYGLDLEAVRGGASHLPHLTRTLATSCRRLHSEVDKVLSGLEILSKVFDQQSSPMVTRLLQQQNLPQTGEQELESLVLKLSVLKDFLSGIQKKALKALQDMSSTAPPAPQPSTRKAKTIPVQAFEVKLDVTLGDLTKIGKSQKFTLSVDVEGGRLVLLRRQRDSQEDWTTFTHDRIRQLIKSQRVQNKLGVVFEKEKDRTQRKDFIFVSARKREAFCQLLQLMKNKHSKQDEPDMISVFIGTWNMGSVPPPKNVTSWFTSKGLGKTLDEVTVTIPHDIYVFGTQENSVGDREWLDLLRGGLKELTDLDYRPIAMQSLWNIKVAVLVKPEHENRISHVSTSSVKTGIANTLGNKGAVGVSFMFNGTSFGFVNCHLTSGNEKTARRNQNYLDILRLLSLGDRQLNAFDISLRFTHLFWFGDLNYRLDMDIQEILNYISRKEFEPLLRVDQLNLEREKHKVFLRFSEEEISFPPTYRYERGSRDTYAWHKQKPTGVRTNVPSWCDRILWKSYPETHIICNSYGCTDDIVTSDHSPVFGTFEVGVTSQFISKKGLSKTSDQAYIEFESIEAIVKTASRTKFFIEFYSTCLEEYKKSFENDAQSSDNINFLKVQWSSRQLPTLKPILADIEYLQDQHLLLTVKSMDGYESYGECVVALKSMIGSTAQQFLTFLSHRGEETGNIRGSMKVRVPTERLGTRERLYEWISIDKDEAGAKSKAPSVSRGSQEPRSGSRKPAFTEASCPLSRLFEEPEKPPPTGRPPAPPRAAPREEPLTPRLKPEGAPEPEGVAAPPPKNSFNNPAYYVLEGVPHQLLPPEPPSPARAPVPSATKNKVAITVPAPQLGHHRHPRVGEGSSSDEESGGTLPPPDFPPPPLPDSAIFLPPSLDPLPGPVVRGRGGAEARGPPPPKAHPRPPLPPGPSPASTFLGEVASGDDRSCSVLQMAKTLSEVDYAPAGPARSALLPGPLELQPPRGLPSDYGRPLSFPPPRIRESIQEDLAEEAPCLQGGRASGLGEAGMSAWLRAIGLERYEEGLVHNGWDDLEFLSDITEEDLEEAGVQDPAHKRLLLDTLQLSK

[9] = target: T1, Phosphatidylinositol 3,4,5-trisphosphate 5-phosphatase 1; experiment: Inhibition of SHIP-1 (unknown origin) by malachite green solution based […] analysis
[10] = target: T2, Phosphatidylinositol 3,4,5-trisphosphate 5-phosphatase 2; experiment: Inhibition of human SHIP-2 (420 to 732 residues) catalytic domain expressed in Rosetta DE3 BL21 cells using -(1,2-dioctanoylphosphatidyflinosito1-3,4,5-trisphosphate as substrate by malachite green based spectramax microplate reader analysis

SMILES | pIC50 [1] | further results
CC(C)CCC[C@@H](C)[C@H]1CC[C@H]2[C@@H]3CC[C@H]4C[C@H](N)CC[C@]4(C)[C@H]3CC[C@]12C | – | pIC50 [2]: 4.86
CSc1ccc2c(c1)c(CCN)c(C)n2Cc1ccccc1Cl | – | pIC50 [3]: 3.30
N#CC1=C2N=C(N)c3ccccc3N2C2=C(C(=O)CCC2)C1c1cccnc1 (stereo not given) | 4.18 | –
O[C@H](c1cc(-c2ccccc2)nc2c1ccc1ccccc12)[C@@H]1CCCCN1 | – | pIC50 [3]: 4.52; pIC50 [8]: 4.52
C[C@@]12CCC[C@H]1[C@@H]1CC[C@H]3C[C@H](N)[C@H](N)C[C@]3(C)[C@H]1CC2 | – | pIC50 [9]: 5.22
N#CC1=C2N=C(N)c3ccccc3N2C2=C(C(=O)CCC2)C1c1nc2ccccc2s1 (stereo not given) | < 4.40 | –
N#CC1=C2N=C(N)c3ccccc3N2C2=C(C(=O)CC(c3cccs3)C2)C1c1cccnc1 (stereo not given) | 4.06 | pIC50 [10]: < 3.70
N#CC1=C2N=C(N)c3ccccc3N2C2=C(C(=O)CCC2)C1c1ccc(F)c(F)c1 (stereo not given) | < 4.40 | –
O[C@H](c1cc(C23CC4CC(CC(C4)C2)C3)nc2c(Cl)cc(Cl)cc12)[C@@H]1CCCCN1 | – | pIC50 [3]: 4.20; pIC50 [8]: 4.46
C[C@@]12CCC[C@H]1[C@@H]1CC[C@H]3C[C@H](N)CC[C@]3(C)[C@H]1CC2 | – | pIC50 [9]: 4.80

Further compounds by rising pIC50 [1], results first:

pIC50 [1] | SMILES | further results
4.33 | CC(=O)C1=C(C)Nc2sc(C(=O)c3ccc(Cl)c(Cl)c3)c(N)c2C1c1cccnc1 (stereo not given) | –
4.33 | Cc1oc(-c2ccccc2Cl)nc1Cn1cccc1C1=NC(c2ccccc2)CO1 (stereo not given) | –
4.40 | N#CC1=C2N=C(N)c3ccccc3N2C2=C(C(=O)CCC2)C1c1cc2ccccc2s1 (stereo not given) | –
4.41 | N#CC1=C2N=C(N)c3ccccc3N2C2=C(C(=O)CCC2)C1c1ccc(Cl)cc1Cl (stereo not given) | –
4.44 | N#CC1=C2N=C(N)c3ccccc3N2C2=C(C(=O)CCC2)C1c1cccc([N+](=O)[O-])c1 (stereo not given) | –
4.47 | CC(C)c1ccc(C2C(C#N)=C3N=C(O)c4ccccc4N3C3=C2C(=O)CCC3)cc1 (stereo not given) | –
4.55 | N#CC1=C2N=C(N)c3ccccc3N2C2=C(C(=O)CCC2)C1c1cc2ccccc2o1 (stereo not given) | –
4.63 | N#CC1=C2N=C(N)c3ccccc3N2C2=C(C(=O)CCC2)C1c1cc(Br)ccc1F (stereo not given) | –
4.75 | CC1(C)CC(=O)C2=C(C1)N1C(=C(C#N)C2c2ccc(-c3ccccc3)cc2)N=C(N)c2ccccc21 (stereo not given) | –
4.81 | N#CC1=C2N=C(N)c3ccccc3N2C2=C(C(=O)CCC2)C1c1cccc(Cl)c1 (stereo not given) | –
4.88 | CC(C)c1ccc(C2C(C#N)=C3N=C(N)c4ccccc4N3C3=C2C(=O)CCC3)cc1 (stereo not given) | –
4.99 | CC(C)c1ccc(C2C(C#N)=C3N=C(N)c4ccccc4N3C3=C2C(=O)CC(C)(C)C3)cc1 (stereo not given) | –
5.21 | N#CC1=C2N=C(N)c3ccccc3N2C2=C(C(=O)CCC2)C1c1ccc(-c2ccccc2)cc1 (stereo not given) | pKi [4]: 5.49; IC50 at 48 h [5]: 19.9 µM; pEC50 (HMC3 [6]): 4.70; pEC50 (HMC3 [7]): 5.70
